Assay results published in BindingDB's records for patent US8962648 (Oncotherapy Science, 2015).
Where “and” joins values, the source holds several entries; their conditions need not be identical. Identical values can stand only once.

Each compound was assayed against T1, Lymphokine-activated killer T-cell-originated protein kinase (Homo sapiens, UniProt Q96KB5) (assay: Kinase Assay). Conditions: pH 7.4; 25 °C.
T1 sequence (Q96KB5 whole entry): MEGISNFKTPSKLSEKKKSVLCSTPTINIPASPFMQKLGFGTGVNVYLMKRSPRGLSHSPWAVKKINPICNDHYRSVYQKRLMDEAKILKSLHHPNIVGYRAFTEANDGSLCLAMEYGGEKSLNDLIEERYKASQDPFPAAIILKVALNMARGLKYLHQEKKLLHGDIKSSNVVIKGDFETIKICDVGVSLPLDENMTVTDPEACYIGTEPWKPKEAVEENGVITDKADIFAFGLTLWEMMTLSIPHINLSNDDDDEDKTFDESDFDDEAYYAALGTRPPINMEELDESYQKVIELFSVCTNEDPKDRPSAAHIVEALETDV
Experimental: PBK activity was determined in the presence or absence of compounds using fluorescein isothiocyanate-labeled (FITC-labeled) histone H3 peptide as a substrate. […] The serially diluted compounds, 0.8 ng/micro-L PBK (Carna Biosciences) and 100 nM FITC-labeled histone H3 peptide were reacted in a reaction buffer (20 mM HEPES, 0.01% Tween-20, 0.3 mM MgCl2, 2 mM dithiothreitol, 50 micro-M ATP, pH 7.4) at room temperature for 1 hour. The reaction was stopped by the addition of three fold assay volume of progressive binding solution. Following 0.5 hour incubation at room temperature.
CC(CN)c1ccc(-c2c(O)ccc3[nH]c(=O)c4sccc4c23)cc1Cl (stereo not drawn) [US8962648, 1280] showed an IC50 of 10 nM.
For O=c1[nH]c2ccc(O)c(-c3ccc(CN4CCC(O)C4)c(F)c3)c2c2ccsc12 (stereo not drawn) [US8962648, 278], the IC50 was 0.97 nM.
With COc1ccc2[nH]c(=O)c3sccc3c2c1-c1ccc(CCN)cc1 [US8962648, 169] the IC50 was 22 nM.
NCC1(c2ccc(-c3c(O)cc(Br)c4[nH]c(=O)c5sccc5c34)cc2)CC1 [US8962648, 1401] showed an IC50 of 51 nM.
CCN(CC)C(C)c1ccc(-c2c(O)ccc3[nH]c(=O)c4sccc4c23)cc1F (stereo not drawn) [US8962648, 356] gave an IC50 of 3.6 nM.
CN(C)S(=O)(=O)c1ccc(-c2c(O)ccc3[nH]c(=O)c4sccc4c23)cc1 [US8962648, 304] showed an IC50 of 45 nM.
Cc1cc2c(s1)c(=O)[nH]c1c(C)cc(O)c(-c3ccc([C@@H](C)CN)cc3)c12 [US8962648, 1340] gave an IC50 of 12 nM.
For CCC(N)c1ccc(-c2c(O)cc(Cl)c3[nH]c(=O)c4sccc4c23)cc1 (stereo not drawn) [US8962648, 1088], the IC50 was 16 nM.
For NCCc1ccc(-c2c(O)cc(Cl)c3[nH]c(=O)c4sccc4c23)cc1Cl [US8962648, 1268], the IC50 was 3.9 nM.
CNC[C@@H](C)c1ccc(-c2c(O)cc(C)c3[nH]c(=O)c4sccc4c23)cc1 [US8962648, 1215] showed an IC50 of 60 nM.
Work on CC(N)c1ccc(-c2c(O)cc(Br)c3[nH]c(=O)c4sccc4c23)cc1 (stereo not drawn) [US8962648, 1032] yielded an IC50 of 47 nM.
Compound CC(N)c1ccc(-c2c(O)ccc3[nH]c(=O)c4sccc4c23)cc1 (stereo not drawn) [US8962648, 195] has an IC50 of 0.73 nM.
Compound COc1cc(Cl)c2[nH]c(=O)c3sccc3c2c1-c1ccc(C2(CN)CCC2)cc1 [US8962648, 1321] has an IC50 of 96 nM.
Nc1ccc(-c2c(O)ccc3[nH]c(=O)c4sccc4c23)cc1O [US8962648, 217] gave an IC50 of 2.3 nM.
Compound CC(CN)c1ccc(-c2c(O)ccc3[nH]c(=O)c4sccc4c23)cc1F (stereo not drawn) [US8962648, 1174] has an IC50 of 1.5 nM.
COc1cc(C)c2[nH]c(=O)c3sccc3c2c1-c1ccc(C2(CN)CC2)cc1 [US8962648, 1251] showed an IC50 of 55 nM.
Cc1cc(O)c(-c2ccc(C(C)CS(N)(=O)=O)cc2)c2c1[nH]c(=O)c1sccc12 (stereo not drawn) [US8962648, 1419] gave an IC50 of 82 nM.
For CCN(CC)Cc1ccc(-c2c(O)ccc3[nH]c(=O)c4sccc4c23)cc1 [US8962648, 184], the IC50 was 7.7 nM.
CS(=O)(=O)N1CCN(c2ccc(-c3c(O)ccc4[nH]c(=O)c5sccc5c34)cc2)CC1 [US8962648, 112] was tested, and the IC50 was 12 nM.
For CN(C)CCc1ccc(-c2c(O)ccc3[nH]c(=O)c4sccc4c23)cc1 [US8962648, 93], the IC50 was 5.4 nM.
C[C@@H](c1ccc(-c2c(O)ccc3[nH]c(=O)c4sccc4c23)cc1)N(C)C [US8962648, 335] gave an IC50 of 2.9 nM.
With CN(C)CCc1ccc(-c2c(O)ccc3[nH]c(=O)c4sccc4c23)cc1F [US8962648, 327] the IC50 was 1.9 nM.
Compound NCc1ccc(-c2c(O)cc(Br)c3[nH]c(=O)c4sccc4c23)cc1 [US8962648, 270] has an IC50 of 31 nM.
For CNCCc1ccc(-c2c(O)cc(Br)c3[nH]c(=O)c4sccc4c23)cc1F [US8962648, 1245], the IC50 was 45 nM.
In the case of CC(N)Cc1ccc(-c2c(O)cc(Cl)c3[nH]c(=O)c4sccc4c23)cc1 (stereo not drawn) [US8962648, 1106], the IC50 is reported as 41 nM.
For N#CCc1ccc(-c2c(O)ccc3[nH]c(=O)c4sccc4c23)cc1F [US8962648, 261], the IC50 was 15 nM.
For CC(NS(C)(=O)=O)c1ccc(-c2c(O)ccc3[nH]c(=O)c4sccc4c23)cc1 (stereo not drawn) [US8962648, 347], the IC50 was 3.7 nM and 2 nM.
C[C@@H](NS(C)(=O)=O)c1ccc(-c2c(O)ccc3[nH]c(=O)c4sccc4c23)cc1 [US8962648, 301] gave an IC50 of 3.2 nM.
In the case of COc1cc(C)c2[nH]c(=O)c3sc(F)cc3c2c1-c1ccc([C@@H](C)CN)cc1 [US8962648, 1375], the IC50 is reported as 22 nM.
CC(C)(N)c1ccc(-c2c(O)ccc3[nH]c(=O)c4sccc4c23)cc1 [US8962648, 319] was tested, and the IC50 was 0.43 nM.
Compound C[C@H](CN)c1ccc(-c2c(O)ccc3[nH]c(=O)c4sccc4c23)cc1 [US8962648, 1163] has an IC50 of 1.3 nM.
CC[C@H](NC)c1ccc(-c2c(O)cc(Cl)c3[nH]c(=O)c4sccc4c23)cc1 [US8962648, 1154] showed an IC50 of 9.4 nM.
CCC(CN)c1ccc(-c2c(O)cc(Cl)c3[nH]c(=O)c4sccc4c23)cc1 (stereo not drawn) [US8962648, 1312] was tested, and the IC50 was 19 nM.
Compound COc1cc(C)c2[nH]c(=O)c3sccc3c2c1-c1ccc(C2(CN)CCC2)cc1 [US8962648, 1297] has an IC50 of 35 nM.
CC(C)(CN)c1ccc(-c2c(O)cc(Br)c3[nH]c(=O)c4sccc4c23)cc1 [US8962648, 1247] gave an IC50 of 72 nM.
COc1ccc2[nH]c(=O)c3sccc3c2c1-c1ccc(S(=O)(=O)NCCF)cc1 [US8962648, 333] showed an IC50 of 31 nM.
For COc1ccc2[nH]c(=O)c3sccc3c2c1-c1ccc(CN2CCC(CNC(=O)OC(C)(C)C)CC2)cc1 [US8962648, 139], the IC50 was 9.4 nM.
In the case of Cc1cc(O)c(-c2ccc(C(C)(C)CN)c(F)c2)c2c1[nH]c(=O)c1sccc12 [US8962648, 1278], the IC50 is reported as 22 nM.
CC[C@H](N)c1ccc(-c2c(O)ccc3[nH]c(=O)c4sccc4c23)cc1 [US8962648, 1120] gave an IC50 of 0.88 nM.
For CCN[C@H](CC)c1ccc(-c2c(O)ccc3[nH]c(=O)c4sccc4c23)cc1 [US8962648, 1127], the IC50 was 1.4 nM.
Work on CC(C)OC(=O)Oc1ccc2[nH]c(=O)c3sccc3c2c1-c1ccc(C(C)N)cc1 (stereo not drawn) [US8962648, 1077] yielded an IC50 of 76 nM.
N[C@H]1CCN(c2ccc3[nH]c(=O)c4sc(-c5ccc(O)cc5)cc4c3c2)C1 [US8962648, 51] showed an IC50 of 78 nM.
For CS(=O)(=O)NCc1ccc(-c2c(O)ccc3[nH]c(=O)c4sccc4c23)cc1 [US8962648, 212], the IC50 was 5.5 nM.
Compound NCCCc1ccc(-c2c(O)ccc3[nH]c(=O)c4sccc4c23)cc1 [US8962648, 273] has an IC50 of 0.74 nM.
O=c1[nH]c2ccc(O)c(-c3ccc(S(=O)(=O)NCCBr)c(F)c3)c2c2ccsc12 [US8962648, 297] gave an IC50 of 13 nM.
In the case of O=c1[nH]c2ccc(O)c(-c3ccc(S(=O)(=O)NCCCl)cc3)c2c2ccsc12 [US8962648, 332], the IC50 is reported as 23 nM.
CC(c1ccc(-c2c(O)ccc3[nH]c(=O)c4sccc4c23)cc1)N1CCCCC1 (stereo not drawn) [US8962648, 262] was tested, and the IC50 was 4.3 nM.
For CN(C)CC(C)(C)c1ccc(-c2c(O)ccc3[nH]c(=O)c4sccc4c23)cc1 [US8962648, 308], the IC50 was 2.8 nM.
Work on CN[C@@H](C)c1ccc(-c2c(O)ccc3[nH]c(=O)c4sccc4c23)cc1 [US8962648, 1082] yielded an IC50 of 1.1 nM.
Work on CN[C@H](C)c1ccc(-c2c(O)cc(C)c3[nH]c(=O)c4sccc4c23)cc1 [US8962648, 1262] yielded an IC50 of 12 nM.
CCN(CC)C(C)c1ccc(-c2c(O)ccc3[nH]c(=O)c4sccc4c23)cc1 (stereo not drawn) [US8962648, 196] showed an IC50 of 4.5 nM.
N#CC1(c2ccc(-c3c(O)ccc4[nH]c(=O)c5sccc5c34)cc2)CC1 [US8962648, 361] showed an IC50 of 32 nM.
COc1cc(C)c2[nH]c(=O)c3sccc3c2c1-c1ccc(CCN)c(Cl)c1 [US8962648, 1263] showed an IC50 of 33 nM.
Cc1cc(O)c(-c2ccc(CCN)c(Cl)c2)c2c1[nH]c(=O)c1sccc12 [US8962648, 1264] gave an IC50 of 3 nM.
For C[C@@H](N)c1ccc(-c2c(O)ccc3[nH]c(=O)c4sccc4c23)cc1 [US8962648, 275], the IC50 was 0.54 nM.
N#Cc1ccc2[nH]c(=O)c3sccc3c2c1-c1ccc(CN)cc1 [US8962648, 326] was tested, and the IC50 was 13 nM.
In the case of CS(=O)(=O)Nc1ccc(-c2c(O)ccc3[nH]c(=O)c4sccc4c23)cc1 [US8962648, 77], the IC50 is reported as 2.6 nM.
Compound CC[C@@H](N)c1ccc(-c2c(O)cc(Br)c3[nH]c(=O)c4sccc4c23)cc1 [US8962648, 1150] has an IC50 of 47 nM.
In the case of CN[C@H](C)c1ccc(-c2c(OC)cc(C)c3[nH]c(=O)c4sccc4c23)cc1 [US8962648, 1265], the IC50 is reported as 67 nM.
CC(N)Cc1ccc(-c2c(O)ccc3[nH]c(=O)c4sccc4c23)cc1 (stereo not drawn) [US8962648, 1095] was tested, and the IC50 was 1.3 nM.
In the case of CCC(N)c1ccc(-c2c(OC)ccc3[nH]c(=O)c4sccc4c23)cc1 (stereo not drawn) [US8962648, 337], the IC50 is reported as 5.2 nM.
In the case of COc1ccc2[nH]c(=O)c3sccc3c2c1-c1ccc(CN(C)C)cc1 [US8962648, 164], the IC50 is reported as 11 nM.
For CCC(c1ccc(-c2c(O)ccc3[nH]c(=O)c4sccc4c23)cc1)N(CC)CC (stereo not drawn) [US8962648, 338], the IC50 was 3.7 nM.
CCC(CN)c1ccc(-c2c(OC)cc(C)c3[nH]c(=O)c4sccc4c23)cc1 (stereo not drawn) [US8962648, 1277] gave an IC50 of 63 nM.
CC[C@@H](N)c1ccc(-c2c(O)cc(C)c3[nH]c(=O)c4sccc4c23)cc1 [US8962648, 1157] was tested, and the IC50 was 18 nM.
In the case of COc1ccc2[nH]c(=O)c3sccc3c2c1-c1ccc([C@H](C)N)cc1 [US8962648, 232], the IC50 is reported as 7.4 nM.
In the case of COc1ccc2[nH]c(=O)c3sccc3c2c1-c1ccc(C(C)N2CCCC2)cc1 (stereo not drawn) [US8962648, 216], the IC50 is reported as 21 nM.
For CNCc1ccc(-c2c(OC)ccc3[nH]c(=O)c4sccc4c23)cc1 [US8962648, 188], the IC50 was 7.8 nM.
CC(C)(CN)c1ccc(-c2c(O)ccc3[nH]c(=O)c4sccc4c23)cc1F [US8962648, 1271] gave an IC50 of 1 nM.
CC(=O)Oc1ccc2[nH]c(=O)c3sccc3c2c1-c1ccc(C(C)N)cc1 (stereo not drawn) [US8962648, 1099] gave an IC50 of 33 nM.
CC[C@@H](N)c1ccc(-c2c(O)ccc3[nH]c(=O)c4sccc4c23)cc1 [US8962648, 1131] was tested, and the IC50 was 1.3 nM.
NCCc1ccc(-c2c(O)ccc3[nH]c(=O)c4sccc4c23)cc1F [US8962648, 276] was tested, and the IC50 was 0.5 nM.
Compound CN[C@@H](C)c1ccc(-c2c(OC)ccc3[nH]c(=O)c4sccc4c23)cc1 [US8962648, 1064] has an IC50 of 2.5 nM.
